Marks after values point to notes of the source that are not given here.
What was measured:
[1] = system: transient cerebral ischemia middle cerebral artery occlusion (MCAO) rat model; experiment: Transient cerebral ischemia middle cerebral artery occlusion (MCAO) rat model, infarct volume; type: in vivo; settings: N 12; for Mean Infarct Volume ± S.E.M., Striatum: vehicle 79.4; for Mean Infarct Volume ± S.E.M., Cortex: vehicle 275.5; for Mean Infarct Volume ± S.E.M., Total Volume: vehicle 354.9
Procedure: The enantiomer of Formula 7 (test compound) was investigated in the transient cerebral ischemia middle cerebral artery occlusion (MCAO) rat model (as described in Nagasawa H. and Kogure K., Stroke, 1989, 20, 1037; and, Zea Longa E., Weinstein P. R., Carlson S, and Cummins R., Stroke, 1989, 20, 84) using male Wistar rats at 10 and 100 mg/kg (i.v.). MK 801 (Dizocilpine maleate; CAS Registry number 77086-22-7, a commercially available neuroprotectant compound) was used as a positive control (3 mg/kg, i.p.).
Rats (n=12) were randomly allocated to one of four experimental groups and were anesthetized. Blood flow from the internal carotid artery, anterior cerebral artery and posterior cerebral artery into the middle cerebral artery was blocked by this procedure. One hour after blockage, animals were treated over a 1 hour period with vehicle (administered i.v. over the one hour period), control (administered as a single i.p. dose at the start of the one hour period) and two doses of the enantiomer of Formula 7 (administered i.v. over the one hour period). Two hours after blockage, reperfusion was performed.
The animals were sacrificed and […] coronal sections of each brain were prepared. One in every forty sections (i.e. every […]) from the front to the occipital cortex was used to quantify the extent of the cerebral lesion. Slides were prepared using sections stained (according to the Nissl procedure) with cresyl violet and were examined under a light microscope.
Regional ischemic surface areas in the coronal sections of individual rats were determined according to the presence of cells with morphological changes. The areas of neuronal injury or infarction were measured and then added. The cortex and striatum volume were calculated for each animal (total ischemic surface area×0.8 mm (thickness)).
The mean volumes (.+−.S.E.M.) for each animal randomly assigned to the four experimental groups were compared using one-way ANOVA (one way ANOVA is a statistical method which compares 3 or more unmatched groups) followed by Dunnett's t-test (both methods incorporated in Statview 512+software, BarinPower, Calabasas, Calif., USA).

PC12 cells = experiment: PC12 cell serum withdrawal model, MTS cell survival assay; type: cell-based
Excerpt: Serum withdrawal is a cytotoxic environmental challenge that results in cell death in cultured cell lines as well as in primary cells of various tissue origins, including nerve cells. In particular, pheochromocytoma (PC) 12 cells have been widely employed as an in vitro neuronal cell model for a wide variety of neurodegenerative and cell death related disorders (Muriel, et al, Mitochondrial free calcium levels (Rhod-2 fluorescence) and ultrastructural alterations in neuronally differentiated PC12 cells during ceramide-dependent cell death, J. Comp. Neurol., 2000, 426(2), 297-315; Dermitzaki, et al, Opioids transiently prevent activation of apoptotic mechanisms following short periods of serum withdrawal, J. Neurochem., 2000, 74(3), 960-969; Carlile, et al, Reduced apoptosis after nerve growth factor and serum withdrawal: conversion of tetrameric glyceraldehyde-3-phosphate dehydrogenase to a dimer, Mol. Pharmacol., 2000, 57(1), 2-12). PC12 cells were cultured in sterile media (RPMI 1640) supplemented with 10% heat-inactivated horse serum and 5% fetal bovine serum (FBS). The culture medium also contained Penicillin-Streptomycin-Neomycin antibiotic (50 µg, 50 µg, 100 µg, respectively). Medium was exchanged every other day and the cells were passed in log phase near confluence.
The control cells were cultured in regular media without any treatment. An enantiomer of Formula 7 or Formula 8 (10 µM) was mixed well in the medium and then applied to the cells. For the 2 day assay, an enantiomer of Formula 7 or Formula 8 (10 µM) was only applied to the cells once at the time of serum withdrawal. For the 7 day assay, an enantiomer of Formula 7 or Formula 8 (10. mu.M) was applied to the cells at the time of serum withdrawal and every 48 hr thereafter when cells were changed with fresh new serum-free medium. In the serum withdrawal group, the cells were cultured in serum-free medium with no additional enantiomer of Formula 7 or Formula 8. Cell survival was determined by the 3-(4,5-dimethylthiazol-2-yl)-5-(3-[…])-2-(4-sulfophenyl)-2H-tetrazolium inner salt (MTS) assay at 2 or 7 days after serum withdrawal.
At the end of the experiment, cells were washed with fresh medium and incubated with MTS solution in a humidified 37° C. with 5% CO2 incubator for 1.5 hr. After the incubation period, the cells were immediately analyzed using a Softmax program (Molecular Devices). […] The assay is based on the cellular conversion of the tetrazolium salt, MTS, into a formazan that is soluble in tissue culture medium and measured directly at 490 nm in 96-well assay plates. The absorbance is directly proportional to the number of living cells in culture. The arbitrary absorbance reading in control cells is expressed as 100% survival rate.

[2] = system: rats subjected to li-pilo SE; experiment: Latency to and frequency of spontaneous seizures by video recording, lithium-pilocarpine model (Example 2); type: in vivo, rat; settings: pilo-TC90 (90 mg/kg), Non epileptic subgroup (n = 5), no seizure over 150 days post-SE
[3] = Formula 7 10 mg/kg i.v. over 1 hour
[4] = Formula 7 100 mg/kg i.v. over 1 hour

NC(=O)OC[C@@H](O)c1ccccc1Cl [Formula 7]
Mean Infarct Volume ± S.E.M., Striatum [1, 3]: 75.9 ± 2.6 mm^3
Mean Infarct Volume ± S.E.M., Cortex [1, 3]: 201.0 ± 23.9 mm^3
Mean Infarct Volume ± S.E.M., Total Volume [1, 3]: 276.9 ± 25.4 mm^3
Mean Infarct Volume ± S.E.M., Striatum [1, 4]: 63.0 ± 5.9^2 mm^3
Mean Infarct Volume ± S.E.M., Cortex [1, 4]: 98.8 ± 29.5^1 mm^3
Mean Infarct Volume ± S.E.M., Total Volume [1, 4]: 161.9 ± 34.3^1 mm^3
2 Day Survival Rate (PC12 cells; 10 µM applied once at serum withdrawal, MTS assay 2 days after serum withdrawal, control 100, serum-free 49.6): 69.4 ± 1.7^1%
7 Day Survival Rate (PC12 cells; 10 µM at serum withdrawal and every 48 hr, MTS assay 7 days after serum withdrawal, control 100, serum-free 23.8): 79.9 ± 4.0^2%
Latency to the first spontaneous seizure [2]: 150** °° days

From patent US20090137652A1, “METHODS FOR NEUROPROTECTION” (priority 2005, published 2009)
